Measured values reported in ChEMBL document CHEMBL1926602, “Anisotropy studies of tRNA-T box antiterminator RNA complex in the presence of 1,4-disubstituted 1,2,3-triazoles” (Bioorg Med Chem Lett, 2011).

What follows are compounds tested on Nucleic Acid (assay: Stabilization of A73U tRNA(Tyr)-5'Rhd-AM1A T box antiterminator RNA complex assessed as increase in anisotrophy changes by at 100 uM by fluorescence anisotropy-based assay relative to untreated control).
Format: nucleic-acid assay

Activity | SMILES
6% | CCOC(=O)C1CCCN(Cc2cn(CC(O)COC(=O)C3CCCCC3)nn2)C1 (stereo not given)
6% | OC(Cn1cc(CN2CCOCC2)nn1)c1ccccc1 (stereo not given)
24% | OC1CCCCC1n1cc(CN2CCOCC2)nn1 (stereo not given)
12% | OC(COCc1ccccc1)Cn1cc(CN2CCOCC2)nn1 (stereo not given)
6% | CCOC(=O)C1CCCN(Cc2cn(CC(O)c3ccccc3)nn2)C1 (stereo not given)
6% | CN(Cc1cn(CC(O)c2ccccc2)nn1)CC1CCCCC1 (stereo not given)
6% | O=C(OC1CCCCC1n1cc(CN2CCOCC2)nn1)c1ccccc1 (stereo not given)
18% | CCCCNC(=O)OCC(O)Cn1cc(CN(CCCC)CCCC)nn1 (stereo not given)
6% | O=C(Cc1ccccc1)OC1CCCCC1n1cc(CN2CCOCC2)nn1 (stereo not given)

The compounds below were run on Nucleic Acid (assay: Inhibition of A73U tRNA(Tyr)-5'Rhd-AM1A T box antiterminator RNA complex assessed as reduction in anisotrophy changes by at 100 uM by fluorescence anisotropy-based assay relative to untreated control).
Format: nucleic-acid assay

inhibition | SMILES
5% | O=C(OCC(O)Cn1cc(CN2CCOCC2)nn1)c1ccccc1 (stereo not given)
12% | CCCCNC(=O)OCC(O)Cn1cc(CN(C)CC2CCCCC2)nn1 (stereo not given)
21% | O=C(OC1CCCCC1n1cc(CN2CCN(c3ccccc3)CC2)nn1)c1ccccc1 (stereo not given)
5% | O=C(COc1ccccc1)OC1CCCCC1n1cc(CN2CCOCC2)nn1 (stereo not given)
26% | CC(C)CCN(C)Cc1cn(CC(O)COC(=O)NCc2ccccc2)nn1 (stereo not given)
5% | CN(Cc1cn(C2CCCCC2OC(=O)Cc2ccccc2)nn1)CC1CCCCC1 (stereo not given)
0% | CCCCCCCC(=O)OCC(O)Cn1cc(CN2CCOCC2)nn1 (stereo not given)
18% | CN(CCc1ccccc1)Cc1cn(CC(O)COCc2ccccc2)nn1 (stereo not given)
47% | CN(Cc1cn(C2CCCCC2O)nn1)CC1CCCCC1 (stereo not given)
32% | CN(Cc1cn(C2CCCCC2OC(=O)c2ccccc2)nn1)CC1CCCCC1 (stereo not given)
47% | OC1CCCCC1n1cc(CN2CCN(c3ccccc3)CC2)nn1 (stereo not given)
26% | CCCCN(CCCC)Cc1cn(C2CCCCC2OC(=O)COc2ccccc2)nn1 (stereo not given)
29% | CCCCC(O)Cn1cc(CN(C)CCc2ccccc2)nn1 (stereo not given)
0% | CC(C)CCN(C)Cc1cn(CC(O)COC(=O)C2CCCCC2)nn1 (stereo not given)
47% | CCOC(=O)C1CCCN(Cc2cn(CC(O)COC(=O)NCc3ccccc3)nn2)C1 (stereo not given)
12% | CCCCN(CCCC)Cc1cn(CC(O)COC(=O)C2CCCCC2)nn1 (stereo not given)
42% | CCCCN(CCCC)Cc1cn(CC(O)COC(=O)NCc2ccccc2)nn1 (stereo not given)
53% | CCCCC(O)Cn1cc(CN2CCCC(C(=O)OCC)C2)nn1 (stereo not given)
47% | CCCCC(O)Cn1cc(CN(C)CC2CCCCC2)nn1 (stereo not given)
0% | CCCCC(O)Cn1cc(CN2CCOCC2)nn1 (stereo not given)
42% | OC1CCCCC1n1cc(CN2CCC(c3ccccc3)CC2)nn1 (stereo not given)
11% | O=C(OCC(O)Cn1cc(CN2CCOCC2)nn1)C1CCCCC1 (stereo not given)
6% | CCCCN(CCCC)Cc1cn(CC(O)COCc2ccccc2)nn1 (stereo not given)
32% | OC(Cn1cc(CN2CCN(c3ccccc3)CC2)nn1)c1ccccc1 (stereo not given)

inhibition | SMILES
26% | CC(C)CCN(C)Cc1cn(C2CCCCC2OC(=O)c2ccccc2)nn1 (stereo not given)
16% | O=C(OC1CCCCC1n1cc(CN2CCC(c3ccccc3)CC2)nn1)c1ccccc1 (stereo not given)
47% | CCCCC(O)Cn1cc(CN2CCN(c3ccccc3)CC2)nn1 (stereo not given)
29% | O=C(NCc1ccccc1)OCC(O)Cn1cc(CN2CCC(c3ccccc3)CC2)nn1 (stereo not given)
37% | OC(COCc1ccccc1)Cn1cc(CN2CCN(c3ccccc3)CC2)nn1 (stereo not given)
47% | CCCCC(O)Cn1cc(CN(C)CCC(C)C)nn1 (stereo not given)
32% | CN(Cc1ccccc1)Cc1cn(CC(O)c2ccccc2)nn1 (stereo not given)
79% | CN(CCCc1ccccc1)Cc1cn(CC(O)COC(=O)NCc2ccccc2)nn1 (stereo not given)
6% | CN(Cc1cn(CC(O)COCc2ccccc2)nn1)CC1CCCCC1 (stereo not given)
0% | CN(CCc1ccccc1)Cc1cn(CC(O)COC(=O)c2ccccc2)nn1 (stereo not given)
11% | CCCCNC(=O)OCC(O)Cn1cc(CN2CCN(c3ccccc3)CC2)nn1 (stereo not given)
32% | CN(CCc1ccccc1)Cc1cn(C2CCCCC2OC(=O)COc2ccccc2)nn1 (stereo not given)
42% | CN(CCc1ccccc1)Cc1cn(CC(O)COC(=O)NCc2ccccc2)nn1 (stereo not given)
24% | CCCCNC(=O)OCC(O)Cn1cc(CN(C)CCC(C)C)nn1 (stereo not given)
18% | CCCCC(O)Cn1cc(CN(CCCC)CCCC)nn1 (stereo not given)
26% | CCOC(=O)C1CCCN(Cc2cn(CC(O)COCc3ccccc3)nn2)C1 (stereo not given)
18% | CN(Cc1cn(CC(O)COC(=O)C2CCCCC2)nn1)CC1CCCCC1 (stereo not given)
59% | CC(C)CCN(C)Cc1cn(C2CCCCC2OC(=O)COc2ccccc2)nn1 (stereo not given)
11% | O=C(OCC(O)Cn1cc(CN2CCN(c3ccccc3)CC2)nn1)c1ccccc1 (stereo not given)
21% | CCOC(=O)C1CCCN(Cc2cn(C3CCCCC3OC(=O)Cc3ccccc3)nn2)C1 (stereo not given)
37% | CN(Cc1cn(C2CCCCC2OC(=O)COc2ccccc2)nn1)CC1CCCCC1 (stereo not given)
42% | O=C(COc1ccccc1)OC1CCCCC1n1cc(CN2CCC(c3ccccc3)CC2)nn1 (stereo not given)
18% | CN(CCCc1ccccc1)Cc1cn(CC(O)COCc2ccccc2)nn1 (stereo not given)
32% | CCCCN(CCCC)Cc1cn(C2CCCCC2O)nn1 (stereo not given)

inhibition | SMILES
16% | CCOC(=O)C1CCCN(Cc2cn(C3CCCCC3O)nn2)C1 (stereo not given)
5% | CCCCNC(=O)OCC(O)Cn1cc(CN2CCOCC2)nn1 (stereo not given)
42% | CN(CCCc1ccccc1)Cc1cn(C2CCCCC2OC(=O)COc2ccccc2)nn1 (stereo not given)
21% | CN(CCc1ccccc1)Cc1cn(C2CCCCC2O)nn1 (stereo not given)
16% | CCCCC(O)Cn1cc(CN2CCC(c3ccccc3)CC2)nn1 (stereo not given)
6% | CCOC(=O)C1CCCN(Cc2cn(CC(O)COC(=O)c3ccccc3)nn2)C1 (stereo not given)
12% | CCCCN(CCCC)Cc1cn(CC(O)COC(=O)c2ccccc2)nn1 (stereo not given)
37% | CCCCC(O)Cn1cc(CN(C)CCCc2ccccc2)nn1 (stereo not given)
12% | CCCCCCCC(=O)OCC(O)Cn1cc(CN(C)CCCc2ccccc2)nn1 (stereo not given)
32% | CN(Cc1cn(CC(O)COC(=O)NCc2ccccc2)nn1)CC1CCCCC1 (stereo not given)
0% | CC(C)CCN(C)Cc1cn(CC(O)COC(=O)c2ccccc2)nn1 (stereo not given)
32% | O=C(NCc1ccccc1)OCC(O)Cn1cc(CN2CCN(c3ccccc3)CC2)nn1 (stereo not given)
11% | CCOC(=O)C1CCCN(Cc2cn(C3CCCCC3OC(=O)c3ccccc3)nn2)C1 (stereo not given)
53% | CCCCN(CCCC)Cc1cn(C2CCCCC2OC(=O)Cc2ccccc2)nn1 (stereo not given)
71% | CCCCCCCC(=O)OCC(O)Cn1cc(CN(CCCC)CCCC)nn1 (stereo not given)
26% | CCCCCCCC(=O)OCC(O)Cn1cc(CN2CCN(c3ccccc3)CC2)nn1 (stereo not given)
24% | CCCCNC(=O)OCC(O)Cn1cc(CN2CCCC(C(=O)OCC)C2)nn1 (stereo not given)
37% | O=C(COc1ccccc1)OC1CCCCC1n1cc(CN2CCN(c3ccccc3)CC2)nn1 (stereo not given)
21% | CCOC(=O)C1CCCN(Cc2cn(C3CCCCC3OC(=O)COc3ccccc3)nn2)C1 (stereo not given)
42% | CC(C)CCN(C)Cc1cn(C2CCCCC2O)nn1 (stereo not given)
12% | CN(CCCc1ccccc1)Cc1cn(CC(O)COC(=O)c2ccccc2)nn1 (stereo not given)
58% | CC(C)CCN(C)Cc1cn(CC(O)c2ccccc2)nn1 (stereo not given)
6% | CN(Cc1cn(CC(O)COC(=O)c2ccccc2)nn1)CC1CCCCC1 (stereo not given)
